According to ChEMBL document CHEMBL5257106, “Design, synthesis, and biological evaluation of novel HDAC inhibitors with a 3-(benzazol-2-yl)quinoxaline framework” (Bioorg Med Chem Lett, 2023):
Activity calls are given as the source filed them. The rule behind the calls is not given here.

Experiments:
[1] = system: HCT-116; test: Induction of apoptosis in human HCT-116 cells assessed as necrotic cells at 0.5 uM incubated for 24 hrs by Annexin V-FITC/PI staining based flow cytometry analysis (reference value: 0.00%); type: functional
[2] = system: HCT-116; test: Induction of apoptosis in human HCT-116 cells assessed as late apoptotic cells at 0.5 uM incubated for 24 hrs by Annexin V-FITC/PI staining based flow cytometry analysis (reference value: 0.323%); type: functional
[3] = system: HCT-116; test: Induction of apoptosis in human HCT-116 cells assessed as increase in Bax protein expression at 0.5 to 1 uM incubated for 24 hrs by Western blot analysis; type: functional, cell-based; details: dose 0.5-1 µM
[4] = target: T1, Protein deacetylase HDAC6 (Homo sapiens, UniProt Q9UBN7); test: Inhibition of HDAC6 (unknown origin)
T1 sequence (Q9UBN7 whole entry): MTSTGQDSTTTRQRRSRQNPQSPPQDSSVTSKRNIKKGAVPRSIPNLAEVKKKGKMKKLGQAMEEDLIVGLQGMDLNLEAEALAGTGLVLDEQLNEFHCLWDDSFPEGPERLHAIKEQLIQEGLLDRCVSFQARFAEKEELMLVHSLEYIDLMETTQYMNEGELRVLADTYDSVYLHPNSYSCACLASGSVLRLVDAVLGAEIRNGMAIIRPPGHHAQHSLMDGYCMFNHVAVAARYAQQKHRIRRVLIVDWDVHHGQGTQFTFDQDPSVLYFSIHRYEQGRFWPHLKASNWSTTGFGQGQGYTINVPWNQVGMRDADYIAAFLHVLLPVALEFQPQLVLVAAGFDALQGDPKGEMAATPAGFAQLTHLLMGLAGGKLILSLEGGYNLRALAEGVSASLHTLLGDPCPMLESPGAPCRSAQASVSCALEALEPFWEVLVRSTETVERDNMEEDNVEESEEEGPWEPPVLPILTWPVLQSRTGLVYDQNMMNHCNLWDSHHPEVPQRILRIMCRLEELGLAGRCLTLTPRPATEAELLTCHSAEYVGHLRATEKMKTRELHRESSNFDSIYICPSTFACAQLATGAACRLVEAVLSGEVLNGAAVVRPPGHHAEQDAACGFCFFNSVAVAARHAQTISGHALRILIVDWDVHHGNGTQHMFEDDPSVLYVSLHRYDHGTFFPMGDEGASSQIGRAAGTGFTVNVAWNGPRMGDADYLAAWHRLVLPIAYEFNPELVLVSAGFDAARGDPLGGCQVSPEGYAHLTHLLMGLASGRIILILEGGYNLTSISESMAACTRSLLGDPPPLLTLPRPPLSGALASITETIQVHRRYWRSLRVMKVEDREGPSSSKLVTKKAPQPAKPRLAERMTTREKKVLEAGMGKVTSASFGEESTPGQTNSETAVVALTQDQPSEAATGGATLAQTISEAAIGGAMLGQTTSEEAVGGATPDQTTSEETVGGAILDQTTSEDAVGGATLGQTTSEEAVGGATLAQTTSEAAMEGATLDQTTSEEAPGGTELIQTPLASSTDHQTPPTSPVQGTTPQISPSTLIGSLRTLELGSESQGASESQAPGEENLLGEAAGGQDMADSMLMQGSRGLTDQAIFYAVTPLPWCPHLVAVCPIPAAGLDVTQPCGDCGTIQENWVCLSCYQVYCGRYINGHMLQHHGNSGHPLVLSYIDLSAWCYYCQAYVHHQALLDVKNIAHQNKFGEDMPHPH

[5] = system: HCT-116; test: Induction of cell cycle arrest in human HCT-116 assessed as decrease in G0/G1 phase cells at 0.5 uM incubated for 48 hrs by flow cytometric analysis (reference value: 63.51%); type: functional; parameters: scale not given: the % may be the effect or the level left
[6] = system: HCT-116; test: Induction of apoptosis in human HCT-116 cells assessed as total apoptotic cells at 0.5 uM incubated for 24 hrs by Annexin V-FITC/PI staining based flow cytometry analysis (reference value: 6.823%); type: functional
[7] = system: MCF7; test: Antiproliferative activity against human MCF7 cells assessed as inhibition of cell growth by MTT assay; type: functional, cell-based
[8] = target: T2, Histone deacetylase 11 (Homo sapiens, UniProt Q96DB2); test: Inhibition of HDAC11 (unknown origin)
T2 sequence (Q96DB2 whole entry): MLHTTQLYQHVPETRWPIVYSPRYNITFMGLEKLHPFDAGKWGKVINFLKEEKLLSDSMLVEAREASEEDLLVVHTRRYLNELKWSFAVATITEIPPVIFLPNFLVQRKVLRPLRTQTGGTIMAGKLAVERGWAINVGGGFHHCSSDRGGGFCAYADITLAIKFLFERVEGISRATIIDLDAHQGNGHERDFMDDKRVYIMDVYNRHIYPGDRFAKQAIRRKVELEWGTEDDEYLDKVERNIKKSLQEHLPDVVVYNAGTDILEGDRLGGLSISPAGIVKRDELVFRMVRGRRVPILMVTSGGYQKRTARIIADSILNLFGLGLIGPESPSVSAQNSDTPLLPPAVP

[9] = system: RS4-11; test: Potency index, ratio of SAHA IC50 to test compound IC50 for antiproliferative activity against human RS4-11 cells assessed as inhibition of cell growth by MTT assay; type: functional
[10] = target: Histone deacetylase 4 (Homo sapiens, UniProt P56524); test: Inhibition of HDAC4 (unknown origin)
Sequence of Histone deacetylase 4 (P56524 whole entry): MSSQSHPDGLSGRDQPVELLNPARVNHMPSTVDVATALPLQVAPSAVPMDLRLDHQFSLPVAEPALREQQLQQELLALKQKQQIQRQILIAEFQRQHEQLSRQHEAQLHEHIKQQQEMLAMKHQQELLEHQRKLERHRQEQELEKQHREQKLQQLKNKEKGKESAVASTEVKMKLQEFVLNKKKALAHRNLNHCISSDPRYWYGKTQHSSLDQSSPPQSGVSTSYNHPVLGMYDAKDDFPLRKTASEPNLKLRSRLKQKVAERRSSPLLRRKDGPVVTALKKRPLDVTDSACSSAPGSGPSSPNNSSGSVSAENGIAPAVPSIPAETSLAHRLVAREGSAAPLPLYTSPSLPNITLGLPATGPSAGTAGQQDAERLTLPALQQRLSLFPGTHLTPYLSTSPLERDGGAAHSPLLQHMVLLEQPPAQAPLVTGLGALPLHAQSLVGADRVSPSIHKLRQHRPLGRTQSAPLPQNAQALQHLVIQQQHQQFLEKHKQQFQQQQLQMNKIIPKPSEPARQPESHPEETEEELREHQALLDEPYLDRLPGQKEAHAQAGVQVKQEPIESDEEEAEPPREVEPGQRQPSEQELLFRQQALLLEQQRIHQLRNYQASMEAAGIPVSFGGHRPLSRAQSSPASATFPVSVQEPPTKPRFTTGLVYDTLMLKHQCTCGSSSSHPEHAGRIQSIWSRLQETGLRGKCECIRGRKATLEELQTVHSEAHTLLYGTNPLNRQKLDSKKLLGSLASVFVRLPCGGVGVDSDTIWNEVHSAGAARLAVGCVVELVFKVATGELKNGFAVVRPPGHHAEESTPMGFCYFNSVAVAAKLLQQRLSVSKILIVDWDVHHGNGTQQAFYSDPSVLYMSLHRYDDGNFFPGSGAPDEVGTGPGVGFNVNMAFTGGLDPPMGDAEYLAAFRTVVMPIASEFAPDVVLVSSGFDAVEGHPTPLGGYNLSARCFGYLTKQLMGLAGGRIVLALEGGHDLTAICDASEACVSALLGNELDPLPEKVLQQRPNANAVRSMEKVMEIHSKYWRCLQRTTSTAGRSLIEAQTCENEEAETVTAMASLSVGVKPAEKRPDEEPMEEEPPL

[11] = target: T3, DNA topoisomerase 1 (Homo sapiens) (UniProt P11387); test: Inhibition of topoisomerase 1 (unknown origin) assessed as effect on DNA by gel electrophoresis
T3 sequence (whole entry): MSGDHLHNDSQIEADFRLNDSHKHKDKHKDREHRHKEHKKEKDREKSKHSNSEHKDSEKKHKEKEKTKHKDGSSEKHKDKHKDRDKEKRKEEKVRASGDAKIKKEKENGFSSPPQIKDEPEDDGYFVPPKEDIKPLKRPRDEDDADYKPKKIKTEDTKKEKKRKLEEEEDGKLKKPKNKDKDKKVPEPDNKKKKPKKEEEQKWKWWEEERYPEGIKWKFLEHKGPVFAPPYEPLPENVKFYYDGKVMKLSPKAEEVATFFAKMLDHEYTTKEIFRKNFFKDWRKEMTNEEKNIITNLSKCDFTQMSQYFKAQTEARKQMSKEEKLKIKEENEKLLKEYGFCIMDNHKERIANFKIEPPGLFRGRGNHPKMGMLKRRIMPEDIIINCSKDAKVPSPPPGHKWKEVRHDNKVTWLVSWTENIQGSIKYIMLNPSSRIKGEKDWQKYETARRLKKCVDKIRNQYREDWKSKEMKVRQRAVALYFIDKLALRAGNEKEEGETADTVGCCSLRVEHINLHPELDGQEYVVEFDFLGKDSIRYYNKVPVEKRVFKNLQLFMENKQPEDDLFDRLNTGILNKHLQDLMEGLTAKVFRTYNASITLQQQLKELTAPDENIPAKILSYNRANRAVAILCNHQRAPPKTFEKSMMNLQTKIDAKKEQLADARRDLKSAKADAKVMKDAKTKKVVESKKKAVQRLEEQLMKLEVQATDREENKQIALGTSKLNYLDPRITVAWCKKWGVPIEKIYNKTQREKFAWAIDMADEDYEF

[12] = system: PANC-1; test: Antiproliferative activity against human PANC-1 cells assessed as inhibition of cell growth by MTT assay; type: functional, cell-based

- IC50 [4]: 44.7 nM
- IC50 [7]: 1270 nM
- IC50 [8]: 110 nM
- IC50 [10]: 15.5 nM
- inhibition [11]: inactive
- IC50 [12]: 1030 nM
Structure (SMILES): O=C(CCCCCCNc1nc2ccccc2nc1-c1nc2ccccc2o1)NO
- Activity [1]: 0.241%
- Activity [2]: 7.21%
- Activity [3]: Active
- Activity [5]: 51.68%
- Activity [6]: 35.31%
- Ratio IC50 [9]: 2
